{"source": "patent US10245256B2", "about": "“Nitroxides for use in treating or preventing diabetes and obesity” (Mitos Pharmaceuticals, Inc., priority 2005, dated 2019)", "key": {"[1]": {"system": "Keratinocyte Growth Factor (Fibroblast Growth Factor 7)", "assay": "Gene expression in cardiac tissue of mice fed Tempol, chip-based microarray", "type": "in vivo", "conditions": "5 mg/g of food from 14 to 31 months", "protocol": "To assess the effects of Tempol on gene expression, Tempol was administered to experimental mice at a dose of 5 mg/g of food from 14 months to 31 months after birth. Mice receiving the same food without the addition of Tempol were used as a negative control. At the age of 31 months, the experimental animals were sacrificed and the hearts were surgically removed. The expression of a broad spectrum of genes in the cardiac tissue was assessed using chip-based microarray technology. Such chips are well known in the art and are widely used to assess gene expression."}, "[2]": {"system": "Adiponectin, C1Q and collagen domain containing (ADIPOQ)", "assay": "Gene expression in adipose tissue of mice fed Tempol, Affymetrix MOE430A 2.0 array", "type": "in vivo", "conditions": "5 g/kg of diet from 12 through 15 months", "protocol": "In a further gene expression study, Tempol was administered to experimental mice at a dose of 5 g/kg of diet from 12 months through 15 months. Mice receiving the same diet without the addition of Tempol were used as a negative control. At the age of 15 months, the adipose tissue of the experimental animals was obtained. The expression of a broad spectrum of genes in the adipose tissue was assessed using chip-based microarray technology. Specifically, in this case an Affymetrix MOE430A 2.0 array, containing 12,960 genes, was employed. Such chips are well known in the art and are widely used to assess gene expression."}, "[3]": {"system": "keratinocyte growth factor", "assay": "Protein level of keratinocyte growth factor in pancreatic ductal cells of patient after Tempol treatment", "type": "in vivo, human", "conditions": "1500 mg per day for 180 days", "protocol": "(§1) A 70-kilogram diabetic patient is administered a dose of 1500 mg of Tempol per day for 180 days. This may be administered in a single dose, or may be administered as a number of smaller doses over a 24-hour period: for example, three 500-mg doses at eight-hour intervals. Following treatment, the protein level of keratinocyte growth factor in the pancreatic ductal cells, and the serum level of adiponectin, is increased.\nas §1, with “70-kilogram” for “70-kilogram diabetic”, “patient at risk for but not yet diagnosed with diabetes” for “patient”"}, "[4]": {"system": "adiponectin", "assay": "Serum level of adiponectin of patient after Tempol treatment", "type": "in vivo, human", "conditions": "1500 mg per day for 180 days", "protocol": "as §1\nas §1, with “70-kilogram” for “70-kilogram diabetic”, “patient at risk for but not yet diagnosed with diabetes” for “patient”"}, "[5]": {"conditions": "70-kilogram patient at risk for but not yet diagnosed with diabetes"}}, "data": [{"smiles": "CC1(C)CC(O)CC(C)(C)N1[O]", "note": "[Tempol, 4-hydroxy-2,2,6,6-tetramethylpiperidine-1-oxyl]", "values": [{"measurement": "KGF expression, TEMPOL-treated mouse tp51", "setting": "[1]; microarray signal, individual animal tp51", "result": 13}, {"measurement": "KGF expression, TEMPOL-treated mouse tp52", "setting": "[1]; microarray signal, individual animal tp52", "result": 52}, {"measurement": "KGF expression, TEMPOL-treated mouse tp53", "setting": "[1]; microarray signal, individual animal tp53", "result": 96}, {"measurement": "Fold change of KGF expression", "setting": "[1]; TEMPOL-treated vs control mice", "result": 2.1, "unit": "fold"}, {"measurement": "Mean adiponectin expression (Tempol-treated mice)", "setting": "[2]; microarray signal, control mean 27698", "result": 33876}, {"measurement": "Fold change of adiponectin expression", "setting": "[2]; Tempol-treated vs control mice, P value 0.003", "result": "increase in expression"}, {"measurement": "protein level of keratinocyte growth factor in the pancreatic ductal cells", "setting": "[3]; 70-kilogram diabetic patient", "result": "increased"}, {"measurement": "protein level of keratinocyte growth factor in the pancreatic ductal cells", "setting": "[3]; [5]", "result": "increased"}, {"measurement": "serum level of adiponectin", "setting": "[4]; 70-kilogram diabetic patient", "result": "increased"}, {"measurement": "serum level of adiponectin", "setting": "[4]; [5]", "result": "increased"}]}]}
